Experimental data from patent publication US7871981B2, “Inhibition of cell motility, angiogenesis, and metastasis” (The United States of America as represented by the …, priority 1999, dated 2011).

Legend:
HUVE cells [1] = test: HUVE cell migration, modified Boyden chamber; type: cell-based, human
Procedure: (§1) The migration assay of HUVE and HMEC-1 cells in modified Boyden chambers was adapted from previously described procedures (Murohara et al., Thromb. Vasc. Biol., 19: 1156-61 (1999), Malinda et al., FASEB J., 13: 53-62 (1999)). In brief, Biocoat Cell Environment control inserts (8 micron pore size; Becton Dickinson) were coated with 0.1% gelatin (Sigma) for at least 1 hour at 37° C. and air dried. Lower chambers contained 0.7 ml RPMI+0.1% BSA, to which 20 ng/ml HGF and/or 300 nM Grb2 inhibitors were added. Cells were pre-treated with the indicated concentrations of Grb2 inhibitors for 18-24 hours, trypsinized, washed twice in RPMI+0.1% BSA, added to upper chambers (5×10^4 cells/well) with or without inhibitors in a final volume of 0.5 ml, and incubated for 4 h at 37° C. Cells on the upper surface of each filter were removed with a cotton swab, while cells that had traversed to the bottom surface of the filter were fixed and stained using Diff-Quik (Dade Diagnostics) and counted using a 10× objective. Mean values from 4 randomly selected fields (1×1.4 mm) were calculated for each of triplicate wells per experimental condition. Shown in FIG. 6 is the ratio of growth factor-treated to control migrating cells designated on the y-axis as “Migration (Fold Increase)” or as the mean number of cells per optical field in FIGS. 8-11.

HMEC-1 cells [2] = test: HMEC-1 cell migration, modified Boyden chamber; type: cell-based, human
Procedure: as §1

HUVECs = test: HUVE cell tubulogenesis assay on Matrigel; type: cell-based, human
Procedure: The HUVE tube formation assay was performed as previously described (Grant et al., J. Cell. Physiol., 153: 614-625 (1992)). Briefly, 96-well plates were coated with 90 μl of Matrigel (10 mg/ml) (Collaborative Research) (Baatout, supra) and incubated at 37° C. for 30 min to promote gelling. 10,000 HUVECs were resuspended in reduced growth medium (serum concentration 10% and 5 U/ml heparin) and added to each well with the indicated reagents in a final volume of 100 μl. After 18 h, the plates were fixed with Diff-Quik, and at least 4 randomly selected fields per experimental conditions were digitally recorded under bright field illumination using a 10× objective. The mean additive length of the cords present in each optical field was measured using IPLab and compared to controls using the Student's unpaired t-test.

TAC-2 cells = test: Epithelial tube formation assay, TAC-2 cells in collagen gels; type: cell-based; conditions: for HGF-induced elongation of epithelial tubes (cord length): HGF 20 ng/ml, 3 days; for concentration at which a sub-maximal inhibitory effect is already observed: HGF-induced tube elongation
Procedure: TAC-2 cells were suspended in three-dimensional collagen gels at 1×10^4 cells/ml in collagen and incubated in complete medium containing HGF and/or Grb2 inhibitors as indicated. After 3 days, the cultures were fixed with 2.5% glutaraldehyde in 0.1 M cacodylate buffer, and at least 3 randomly selected fields per experimental condition in each of 3 separate experiments were digitally recorded with brightfield microscopy. The total length of the cords in each individual colony present in each optical field was measured with IPLab. Cord length was considered as “0” in: a) colonies with a spheroidal shape, and b) slightly elongated structures in which the length to diameter ratio was less than 2. The mean values for each experimental condition were compared to controls using the Student's unpaired t-test. Results in FIG. 5 are described as mean total cord length (in μm) per field.

HMEC-1 cells [3] = test: Endothelial cell tubulogenesis assay on collagen (HMEC-1 collagen invasion); type: cell-based, human
Procedure: HMEC-1 cell tubulogenesis assay on collagen gels was adapted from a previously described procedure (Montesano et al., Cell, 42: 469-77 (1985), Pepper et al., Exp. Cell Res., 204: 356-63 (1993)). Cells were seeded onto collagen gels cast in 16-mm wells (2.5×10^4 cells/well) and grown to confluence in reduced growth medium (5% FCS and 150 μg/ml ECGS). At confluence cells were pre-treated with or without Grb2 inhibitors for 24 hours, after which time medium was replaced by fresh medium supplemented with or without the indicated concentration of inhibitors and/or 20 ng/ml HGF. Medium and compounds were changed every day. After 24 hours, the cultures were fixed in situ, and 5 randomly selected optical fields per experimental condition in each of three separate experiments were digitally recorded under phase contrast microscopy using a 20× phase contrast objective, by focusing 20 μm beneath the surface of the gel. Invasion was quantitated using IPLab software (Scanalytics, Fairfax, Va.) by measuring the total length of all cellular structures that had penetrated beneath the surface monolayer either as apparently single cells or in the form of cell cords. Values were compared using Student's unpaired t-test and a significant value was taken at P<0.001. Results set forth in FIG. 7 are the mean total length (in μm) per field.

MDCK cells = test: Extracellular matrix invasion assay, MDCK cells in collagen gels; type: cell-based, canine; conditions: peptide 100 nM
Procedure: MDCK cell invasion into three-dimensional collagen gels was analyzed as previously described. Briefly, type I collagen (1.5 mg/ml; Cohesion Technologies) was mixed with 10×MEM and sodium bicarbonate (11.76 mg/ml) at a ratio of 8:1:1 (vol:vol:vol) on ice, and 0.4 ml aliquots were dispensed into 16-mm tissue culture wells (Nunc), and allowed to gel at 37° C. for 20 min. Cells were seeded onto gels (1×10^4 cells/well) in 0.4 ml of growth medium containing HGF and/or peptides 1 or 4 as indicated. After 5 days, cells were fixed in situ in 2.5% glutaraldehyde in 0.1 M sodium cacodylate buffer (pH 7.4), and cells that had invaded the gel below the surface monolayer in ten randomly selected fields (1×1.4 mm) were counted microscopically using a 20× phase contrast objective. Depth of cellular invasion into the collagen gel was quantitated in the same ten fields per treatment group using a calibrated fine focusing micrometer. Values were compared using the Student's unpaired t-test and a significant value was taken as P<0.001. Results in Table 1 are shown as the mean number of invading cells/field or mean invasion depth/cell in microns+standard error of the mean.
MDCK cells were left untreated (Control), treated with HGF (10 ng/ml), or HGF+peptide 2 or 4 (100 nM), and invasion into collagen matrices was quantitated microscopically as described above. Values are the mean of at least 10 randomly selected fields±standard error of the mean. Epithelial Tube Formation Assay

HUVE cells [4] = test: HUVE cell proliferation; type: cell-based, human; conditions: growth factor alone: HGF 25 ng/ml, VEGF 10 ng/ml, bFGF 5 ng/ml
Procedure: HUVE or HMVE cells were seeded per triplicate in type I collagen-coated 48-well plates (Biocoat) (3000 cells/well) in […] of complete EGM-Bullet Kit medium (BioWhittaker, Walkersville, Md.), allowed to attach for 4 hr and incubated overnight with or without the indicated concentrations of peptide 2. The cultures were rinsed twice in serum-free medium and incubated with EBM medium (BioWhittaker) supplemented with 50 μg/ml heparin, 50 μg/ml ascorbic acid and 10% FCS. After either 4 days (HUVE) or 5 days (HMVE), cells were harvested with trypsin/EDTA and counted with an hemocytometer. The mean number of cells per ml was calculated from 3 independent measures for each of triplicate wells per experimental condition and compared to controls using the Student's unpaired t-test. Results set forth in FIG. 12 are described as the ratio of growth factor-treated to control proliferating cells designated on the y-axis as “Proliferation (Fold Increase)”.

NIH 3T3 fibroblasts = test: NIH 3T3 fibroblast migration, modified Boyden chamber; type: cell-based; conditions: PDGF-BB 50 ng/ml alone
Procedure: as §1
PDGF is implicated in different biological processes such vascular remodeling, wound healing and cancer (for reviews, see Bornfeldt et al., Ann N Y Acad. Sci., 766:416-30, 1995; Gendron, Surv. Ophthalmol., 44:184-5, 1999). Addition of 50 ng/ml PDGF-BB to NIH 3T3 fibroblasts incubated in a modified Boyden chamber results in a dramatic, 20-fold increase in cell migration. […] This observation opens a potential therapeutical use of the Grb2 inhibitor compounds in the treatment of diseases such as cancer, wound healing disorders, vascular complications of diabetes mellitus, vascular nephropathies, and diseases with occurrence of fibrosis.

[5] = peptide 300 nM, no growth factor

## CCCCCCCCCCCCCC(=O)O[C@@H]1[C@@H](C)[C@@]2(O)[C@@H](C=C(CO)C[C@]3(O)C(=O)C(C)=C[C@@H]23)[C@@H]2C(C)(C)[C@]12OC(C)=O [PMA, phorbol myristate acetate, reference compound]
HUVE cells [1]; PMA 40 ng/ml alone
  increase of cell migration: 300%

## NC(=O)C[C@H](NC(=O)C1(NC(=O)[C@H](Cc2ccc(CP(=O)(O)O)cc2)NC(=O)C(=O)O)CCCCC1)C(=O)NCCCc1cccc2ccccc12 [peptide 1, oxalyl-Pmp-Ac6c-Asn-NH-(3-naphthalen-1-yl-propyl)]
HMEC-1 cells [2]; peptide 300 nM, HGF 20 ng/ml
  HGF-induced increase on cell motility: practically reverted to basal levels
HMEC-1 cells [2]; [5]
  basal levels of endothelial cell motility: did not significantly alter
HUVE cells [1]; peptide 300 nM
  bFGF-induced HUVEC migration: complete blockade
HUVE cells [1]; peptide 300 nM, HGF 20 ng/ml
  HGF-induced increase on cell motility: practically reverted to basal levels
HUVE cells [1]; [5]
  basal levels of endothelial cell motility: did not significantly alter
HUVECs; HGF/NK1 300 ng/ml, peptide 1 μM, 18 h
  mean length of the cords per optical field: 2502.8±108 μm
HUVECs; peptide 1 μM + HGF/NK1
  extent of cord formation: markedly reduced the extent of cord formation
HUVECs; peptide 1 μM + HGF/NK1 300 ng/ml
  decrease in mean cord length vs HGF/NK1 alone: 30%
TAC-2 cells
  HGF-induced elongation of epithelial tubes (cord length): significantly (p<0.0001) abrogate
  concentration at which a sub-maximal inhibitory effect is already observed: 30 nM
TAC-2 cells; co-addition with HGF 20 ng/ml
  elongation and branching of duct-like structures: abrogated the elongation and branching of duct-like structures
HMEC-1 cells [3]; peptide 30-300 nM, HGF 20 ng/ml
  collagen invasion induced by HGF: suppressed

## HGF: hepatocyte growth factor, recombinant human
MDCK cells; HGF 10 ng/ml, 5 days
  Mean Invading Cells/Field: 29.7 ± 2.6
  Mean Invasion Depth/Cell: 35.6 ± 2.7 μm
HMEC-1 cells [2]; HGF 20 ng/ml alone
  increase on cell motility induced by growth factor: 5.5 fold
HUVE cells [1]; HGF 20 ng/ml alone
  increase on cell motility induced by growth factor: 3.5 fold
HUVE cells [4]
  increase in the mean number of HUVE cells per ml (proliferation): 2.3 fold
HMEC-1 cells [3]; HGF 20 ng/ml alone
  increase in collagen invasion: 6 fold

## CC(=O)N[C@@H](Cc1ccc(C(C(=O)O)C(=O)O)cc1)C(=O)NC1(C(=O)N[C@@H](CC(N)=O)C(=O)NCCCc2cccc3ccccc23)CCCCC1 [peptide 3, (N-acetyl-4-malonyl)-Phe-Ac6c-Asn-NH-(3-naphthalen-1-yl-propyl)]
MDCK cells; HGF-stimulated
  reduction of the mean depth of invasion per cell: at least 50%
  reduction of the number of invading cells: at least 50%
TAC-2 cells
  HGF-induced elongation of epithelial tubes (cord length): significantly (p<0.0001) abrogate
  concentration at which a sub-maximal inhibitory effect is already observed: 30 nM

## bFGF: human recombinant basic fibroblast growth factor
HUVE cells [4]
  increase in the mean number of HUVE cells per ml (proliferation): 4.1 fold

## VEGF
HUVE cells [4]
  increase in the mean number of HUVE cells per ml (proliferation): 2 fold

B1: PDGF-BB: platelet-derived growth factor used to stimulate NIH 3T3 migration (protein, UniProt P01127 82-190, looked up)
Platelet-derived growth …: SLGSLTIAEPAMIAECKTRTEVFEISRRLIDRTNANFLVWPPCVEVQRCSGCCNNRNVQCRPTQVQLRPVQVRKIEIVRKKPIFKKATVTLEDHLACKCETVAAARPVT
modifications: homodimer
notes: platelet-derived growth factor used to stimulate NIH 3T3 migration
NIH 3T3 fibroblasts
  increase in cell migration: 20 fold
